Assay results taken from patent publication US8710043B2, “TRPM8 antagonists and their use in treatments” (Amgen Inc., priority 2011, dated 2014).

The compounds below were run against T1, human TRPM8 (Homo sapiens, UniProt Q7Z2W7) (assay: Luminescence readout assay for measuring intracellular calcium, icilin activation). Details: CHO cells expressing human TRPM8, aequorin luminescence, 1 μM icilin activation; read-out: hTRPM8 IC50.
T1 construct: expressed in transfected cells; host or cells: Chinese hamster ovary (CHO) cells, T-REx tetracycline-inducible system, co-transfected with aequorin
T1 sequence (Q7Z2W7 whole entry): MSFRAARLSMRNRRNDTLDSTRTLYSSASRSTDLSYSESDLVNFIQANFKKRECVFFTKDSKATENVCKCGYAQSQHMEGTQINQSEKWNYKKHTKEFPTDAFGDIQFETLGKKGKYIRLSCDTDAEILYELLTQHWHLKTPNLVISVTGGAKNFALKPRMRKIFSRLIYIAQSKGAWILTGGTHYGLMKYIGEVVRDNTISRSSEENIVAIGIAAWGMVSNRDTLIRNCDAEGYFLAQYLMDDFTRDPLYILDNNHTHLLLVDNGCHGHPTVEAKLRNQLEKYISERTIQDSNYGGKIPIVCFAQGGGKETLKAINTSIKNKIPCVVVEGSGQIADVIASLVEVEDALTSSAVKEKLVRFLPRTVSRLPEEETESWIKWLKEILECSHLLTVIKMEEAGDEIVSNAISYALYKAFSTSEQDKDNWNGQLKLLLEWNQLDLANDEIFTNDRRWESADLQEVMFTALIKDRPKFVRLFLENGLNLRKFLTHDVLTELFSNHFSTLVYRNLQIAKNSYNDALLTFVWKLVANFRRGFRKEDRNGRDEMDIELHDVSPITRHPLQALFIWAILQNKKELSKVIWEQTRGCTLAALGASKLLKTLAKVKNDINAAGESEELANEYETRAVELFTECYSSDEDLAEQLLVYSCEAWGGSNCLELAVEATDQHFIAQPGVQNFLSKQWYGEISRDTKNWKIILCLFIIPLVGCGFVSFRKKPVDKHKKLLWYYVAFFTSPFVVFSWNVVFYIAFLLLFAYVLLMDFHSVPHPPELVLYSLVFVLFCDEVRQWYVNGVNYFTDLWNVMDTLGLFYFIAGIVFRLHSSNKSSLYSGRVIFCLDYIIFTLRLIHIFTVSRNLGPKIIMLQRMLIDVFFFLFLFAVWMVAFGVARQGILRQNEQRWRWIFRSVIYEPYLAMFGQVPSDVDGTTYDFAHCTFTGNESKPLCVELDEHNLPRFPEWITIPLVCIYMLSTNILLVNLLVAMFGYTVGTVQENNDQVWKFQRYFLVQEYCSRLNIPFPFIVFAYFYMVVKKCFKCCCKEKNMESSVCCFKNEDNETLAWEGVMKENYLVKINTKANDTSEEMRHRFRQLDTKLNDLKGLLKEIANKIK
Format: cell-based
How it was run: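 The read-out was luminescence reporting intracellular calcium, recorded by a CCD-based luminometer. Compounds were preincubated for 2.5 min before agonist challenge with 1 μM icilin. Human TRPM8 was expressed in a stable T-REx CHO line, induced with 0.5 μg/mL tetracycline the day before.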

Row | Compound | IC50 [nM]
1 | Cn1cc(C(=O)N[C@@H](c2ccc(OC(F)(F)F)cc2)c2ccccn2)ccc1=O [Example 378, (S)-1-methyl-6-oxo-N-(pyridin-2-yl(4-(trifluoromethoxy)phenyl)methyl)-1,6-dihydropyridine-3-carboxamide] | 50.3
2 | Cc1ccc([C@H](NC(=O)c2ccc(=O)[nH]c2)c2ncccc2F)cc1C [Example 380, (S)-N-((3,4-dimethylphenyl)(3-fluoropyridin-2-yl)methyl)-6-oxo-1,6-dihydropyridine-3-carboxamide] | 245
3 | Cc1cc([C@H](NC(=O)c2ccc(=O)[nH]c2)c2ncccc2F)ccc1OC(F)(F)F [Example 381, (S)-N-((3-fluoropyridin-2-yl)(3-methyl-4-(trifluoromethoxy)phenyl)methyl)-6-oxo-1,6-dihydropyridine-3-carboxamide] | 10.4
4 | O=C(N[C@@H](c1ccc(OC(F)(F)F)c(F)c1)c1ncccc1Br)c1ccc(=O)[nH]c1 [Example 382, (S)-N-((3-bromopyridin-2-yl)(3-fluoro-4-(trifluoromethoxy)phenyl)methyl)-6-oxo-1,6-dihydropyridine-3-carboxamide] | 6.9
5 | O=C(N[C@@H](c1ccc(OC(F)(F)F)c(F)c1)c1ncccc1C(F)(F)F)c1ccc(=O)[nH]c1 [Example 383, (S)-N-((3-fluoro-4-(tritluoromethoxy)phenyl)(3-(trifluoromethyl)pyridin-2-yl)methyl)-6-oxo-1,6-dihydropyridine-3-carboxamide] | 7.9
6 | O=C(N[C@@H](c1ccc(OC(F)(F)F)c(F)c1)c1ncccc1Br)c1ccc2oc(=O)[nH]c2c1 [Example 384, (S)-N-((3-bromopyridin-2-yl)(3-fluoro-4-(trifluoromethoxy)phenyl)methyl)-2-oxo-2,3-dihydrobenzo[d]oxazole-5-carboxamide] | 5.8
7 | O=C(N[C@@H](c1ccc(OC(F)(F)F)c(F)c1)c1ncccc1C(F)(F)F)c1ccc2oc(=O)[nH]c2c1 [Example 385, (S)-N-((3-fluoro-4-(trifluoromethoxy)phenyl)(3-(trifluoromethyl)pyridin-2-yl)methyl)-2-oxo-2,3-dihydrobenzo[d]oxazole-5-carboxamide] | 6.7
8 | Cn1ccnc1C(=O)N[C@@H](c1ccc(OC(F)(F)F)c(F)c1)c1ncccc1F [Example 387, (S)-N-((3-fluoro-4-(trifluoromethoxy)phenyl)(3-fluoropyridin-2-yl)methyl)-1-methyl-1H-imidazole-2-carboxamide 2,2,2-trifluoroacetate] | 279
9 | Cc1c[nH]c(C(=O)N[C@@H](c2ccc(OC(F)(F)F)c(F)c2)c2ncccc2F)n1 [Example 388, (S)-N-((3-fluoro-4-(trifluoromethoxy)phenyl)(3-fluoropyridin-2-yl)methyl)-4-methyl-1H-imidazole-2-carboxamide 2,2,2-trifluoroacetate] | 2980
10 | O=C(N[C@@H](c1ccc(OC(F)(F)F)c(F)c1)c1ncccc1F)c1ccc(O)cn1 [Example 389, (S)-N-((3-fluoro-4-(trifluoromethoxy)phenyl)(3-fluoropyridin-2-yl)methyl)-5-hydroxypicolinamide 2,2,2-trifluoroacetate] | 18.3
11 | CC(=O)Nc1ccc(C(=O)N[C@@H](c2ccc(OC(F)(F)F)c(F)c2)c2ncccc2F)cc1O [Example 390, (S)-4-acetamido-N-((3-fluoro-4-(trifluoromethoxy)phenyl)(3-fluoropyridin-2-yl)methyl)-3-hydroxybenzamide] | 136
12 | O=C(N[C@@H](c1ccc(OC(F)(F)F)c(F)c1)c1ccccn1)c1ccc2[nH]c(=O)oc2c1 [Example 391, (S)-N-((3-fluoro-4-(trifluoromethoxy)phenyl)(pyridin-2-yl)methyl)-2-oxo-2,3-dihydrobenzo[d]oxazole-6-carboxamide] | 11.7
13 | O=C(N[C@@H](c1ccc(OC(F)(F)F)c(F)c1)c1ccccn1)c1ccc2[nH]cnc2c1 [Example 393, (S)-N-((3-fluoro-4-(trifluoromethoxy)phenyl)(pyridin-2-yl)methyl)-1H-benzo[d]imidazole-5-carboxamide] | 6.1

The remaining lines, values ahead:

Row | IC50 [nM] | Compound
14 | 21 | O=C(N[C@@H](c1ccc(C(F)(F)F)cc1)c1ncccc1F)c1c[nH]c(=O)c(Br)c1 [Example 368, (S)-5-bromo-N-((3-fluoropyridin-2-yl)(4-(trifluoromethyl)phenyl)methyl)-6-oxo-1,6-dihydropyridine-3-carboxamide]
15 | 3710 | COn1cc(C(=O)N[C@@H](c2ccc(C(F)(F)F)cc2)c2ncccc2F)ccc1=O [Example 369, (S)-N-((3-fluoropyridin-2-yl)(4-(trifluoromethyl)phenyl)methyl)-1-methoxy-6-oxo-1,6-dihydropyridine-3-carboxamide]
16 | 190 | O=C(N[C@@H](c1ccc(C(F)(F)F)cc1)c1ncccc1F)c1ccc(=O)n(Cc2ccccc2)c1 [Example 371, (S)-1-benzyl-N-((3-fluoropyridin-2-yl)(4-(trifluoromethyl)phenyl)methyl)-6-oxo-1,6-dihydropyridine-3-carboxamide]
17 | 89.4 | O=C(N[C@@H](c1ccc(C(F)(F)F)cc1)c1ncccc1F)c1ccc(=O)n(CC(F)(F)F)c1 [Example 372, (S)-N-((3-fluoropyridin-2-yl)(4-(trifluoromethyl)phenyl)methyl)-6-oxo-1-(2,2,2-trifluoroethyl)-1,6-dihydropyridine-3-carboxamide]
18 | 52.4 | O=C(N[C@@H](c1ccc(OC(F)(F)F)cc1)c1ncccc1F)c1cccs1 [Example 374, (S)-N-((3-fluoropyridin-2-yl)(4-(trifluoromethoxy)phenyl)methyl)thiophene-2-carboxamide]
19 | 30.3 | O=C(N[C@@H](c1ccc(C(F)(F)F)cc1)c1ncccc1F)c1cccs1 [Example 375, (S)-N-((3-fluoropyridin-2-yl)(4-(trifluoromethyl)phenyl)methyl)thiophene-2-carboxamide]
20 | 270 | Cc1ccc([C@H](NC(=O)c2ccc(=O)[nH]c2)c2ncccc2F)cc1 [Example 379, (S)-N-((3-fluoropyridin-2-yl)(p-tolyl)methyl)-6-oxo-1,6-dihydropyridine-3-carboxamide]
21 | 7.6 | O=C(N[C@@H](c1ccc(C(F)(F)F)cc1)c1ncccc1F)c1ccc2[nH]cnc2c1 [Example 392, (S)-N-((3-fluoropyridin-2-yl)(4-(trifluoromethyl)phenyl)methyl)-1H-benzo[d]imidazole-5-carboxamide]
22 | 35.4 | Cn1cnc2cc(C(=O)N[C@@H](c3ccc(C(F)(F)F)cc3)c3ncccc3F)ccc21 [Example 394, (S)-N-((3-fluoropyridin-2-yl)(4-(trifluoromethyl)phenyl)methyl)-1-methyl-1H-benzo[d]imidazole-5-carboxamide]
23 | 6.6 | Cn1cnc2ccc(C(=O)N[C@@H](c3ccc(C(F)(F)F)cc3)c3ncccc3F)cc21 [Example 395, (S)-N-((3-fluoropyridin-2-yl)(4-(trifluoromethyl)phenyl)methyl)-1-methyl-1H-benzo[d]imidazole-6-carboxamide]
24 | 20.1 | O=C(N[C@@H](c1ccc(C(F)(F)F)cc1)c1ncccc1F)c1ccc(=O)n(C(F)F)c1 [Example 396, (S)-1-(difluoromethyl)-N-((3-fluoropyridin-2-yl)(4-(trifluoromethyl)phenyl)methyl)-6-oxo-1,6-dihydropyridine-3-carboxamide]
